In patent US8530388B2, “Cyclopentadione derived herbicides” (Syngenta Limited, priority 2009, dated 2013):

Experiments:
Format in all cases: in vivo
[1] = test system: Alopecurus myosuroides (ALOMY); experiment: Pre-emergence herbicidal activity, glasshouse pot test; details: 312 h, Rate 250 g/ha, sprayed one day after sowing, evaluated after 13 days, 100=total damage to plant, 0=no damage to plant
Method: (§1) Seeds of a variety of test species were sown in standard soil in pots. After cultivation for one day (pre-emergence) or after 8 days cultivation (post-emergence) under controlled conditions in a glasshouse (at 24/16° C., day/night; 14 hours light; 65% humidity), the plants were sprayed with an aqueous spray solution derived from the formulation of the technical active ingredient in acetone/water (50:50) solution containing 0.5% Tween 20 (polyoxyethelyene sorbitan monolaurate, CAS RN 9005-64-5). The test plants were then grown in a glasshouse under controlled conditions in a glasshouse (at 24/16° C., day/night; 14 hours light; 65% humidity) and watered twice daily. After 13 days for pre and post-emergence, the test was evaluated (100=total damage to plant; 0=no damage to plant). Test plants: Setaria faberi (SETFA), Lolium perenne (LOLPE), Alopecurus myosuroides (ALOMY), Echinochloa crus-galli (ECHCG), and Avena fatua (AVEFA) Pre-Emergence Activity

[2] = test system: Echinochloa crus-galli (ECHCG); experiment: as above; details: 312 h, Rate 250 g/ha, sprayed one day after sowing, evaluated after 13 days, 100=total damage to plant, 0=no damage to plant
Method: as §1

Lolium perenne (LOLPE) [3] = experiment: as above; details: 312 h, Rate 250 g/ha, sprayed one day after sowing, evaluated after 13 days, 100=total damage to plant, 0=no damage to plant
Method: as §1

Avena fatua (AVEFA) [4] = experiment: as above; details: 312 h, Rate 250 g/ha, sprayed one day after sowing, evaluated after 13 days, 100=total damage to plant, 0=no damage to plant
Method: as §1

[5] = test system: Alopecurus myosuroides (ALOMY); experiment: Post-emergence herbicidal activity, glasshouse pot test; details: 312 h, rate 250 g/ha, evaluated after 13 days, read-out: Post-emergence activity, ALOMY (100=total damage to plant; 0=no damage to plant)
Method: as §1, with “plant).” for “plant). Test plants: Setaria faberi (SETFA), Lolium perenne (LOLPE), Alopecurus myosuroides (ALOMY), Echinochloa crus-galli (ECHCG), and Avena fatua (AVEFA) Pre-Emergence Activity”
(§2) Test plants: Setaria faberi (SETFA), Lolium perenne (LOLPE), Alopecurus myosuroides (ALOMY), Echinochloa crus-galli (ECHCG), and Avena fatua (AVEFA)

[6] = test system: Echinochloa crus-galli (ECHCG); experiment: as above; details: 312 h, rate 250 g/ha, evaluated after 13 days, read-out: Post-emergence activity, ECHCG (100=total damage to plant; 0=no damage to plant)
Method: as §1, with “plant).” for “plant). Test plants: Setaria faberi (SETFA), Lolium perenne (LOLPE), Alopecurus myosuroides (ALOMY), Echinochloa crus-galli (ECHCG), and Avena fatua (AVEFA) Pre-Emergence Activity”
as §2

Lolium perenne (LOLPE) [7] = experiment: as above; details: 312 h, rate 250 g/ha, evaluated after 13 days, read-out: Post-emergence activity, LOLPE (100=total damage to plant; 0=no damage to plant)
Method: as §1, with “plant).” for “plant). Test plants: Setaria faberi (SETFA), Lolium perenne (LOLPE), Alopecurus myosuroides (ALOMY), Echinochloa crus-galli (ECHCG), and Avena fatua (AVEFA) Pre-Emergence Activity”
as §2

Avena fatua (AVEFA) [8] = experiment: as above; details: 312 h, rate 250 g/ha, evaluated after 13 days, read-out: Post-emergence activity, AVEFA (100=total damage to plant; 0=no damage to plant)
Method: as §1, with “plant).” for “plant). Test plants: Setaria faberi (SETFA), Lolium perenne (LOLPE), Alopecurus myosuroides (ALOMY), Echinochloa crus-galli (ECHCG), and Avena fatua (AVEFA) Pre-Emergence Activity”
as §2

With `CCc1ccc(-c2ccc(Cl)c(OC)c2)cc1C1=C(O)CCC1=O` [Compound T-6] the pest or weed control at 250 g/ha [1] was 0%, the pest or weed control at 250 g/ha [2] was 60% and the pest or weed control at 250 g/ha (Lolium perenne (LOLPE) [3]) was 30%. The pest or weed control at 250 g/ha (Avena fatua (AVEFA) [4]) was 0%, the pest or weed control at 250 g/ha [5] was 50% and the pest or weed control at 250 g/ha [6] was 90%. The pest or weed control at 250 g/ha (Lolium perenne (LOLPE) [7]) was 60% and the pest or weed control at 250 g/ha (Avena fatua (AVEFA) [8]) was 10%.

`CCc1ccc(-c2cc(Cl)c(Cl)cc2Cl)cc1C1=C(O)CCC1=O` [Compound T-16] gave a pest or weed control at 250 g/ha [1] of 0%, a pest or weed control at 250 g/ha [2] of 50% and a pest or weed control at 250 g/ha (Lolium perenne (LOLPE) [3]) of 20%. The pest or weed control at 250 g/ha (Avena fatua (AVEFA) [4]) was 0%, the pest or weed control at 250 g/ha [5] was 50% and the pest or weed control at 250 g/ha [6] was 80%. It also gave a pest or weed control at 250 g/ha (Lolium perenne (LOLPE) [7]) of 60% and a pest or weed control at 250 g/ha (Avena fatua (AVEFA) [8]) of 80%.

For `CCc1ccc(-c2ccc(Cl)c(Cl)c2)cc1C1=C(O)CCC1=O` [Compound T-5], the pest or weed control at 250 g/ha [1] was 20%, the pest or weed control at 250 g/ha [2] was 20% and the pest or weed control at 250 g/ha (Lolium perenne (LOLPE) [3]) was 20%. The pest or weed control at 250 g/ha (Avena fatua (AVEFA) [4]) was 0%, the pest or weed control at 250 g/ha [5] was 30% and the pest or weed control at 250 g/ha [6] was 70%. It also gave a pest or weed control at 250 g/ha (Lolium perenne (LOLPE) [7]) of 50% and a pest or weed control at 250 g/ha (Avena fatua (AVEFA) [8]) of 20%.
